Patent publication US20240358719A1, “Formulations for Prolonging Gestation and for Complications of Menstruation or Gestation” (The Board of Trustees of the Leland Stanford Junior …, priority 2021, published 2024)
“Also recorded” adds a separate entry of the source. Structures can show the parent of a compound that is named as a salt.

Key:
pregnant C57BL/6 mice [1] = assay: mouse model of severe preterm birth (LPS 3 mg/kg); format: in vivo
Protocol: Provided in FIG. 7 is an experimental schematic of compound treatment in mouse models of severe preterm birth. In separate experiments, pregnant C57BL/6 mice were intraperitoneally administered 3 mg/kg LPS (Escherichia coli 0127: B8, chromatographically pure, Sigma-Aldrich) or PBS (as control) on D15. Treated mice were then treated with either intraperitoneal injections of vehicle (200 μl) or androstane-3,17-diol (1.5 mg/mouse, 200 μl) every 12 hours, up to 5 doses before delivery.
(§1) Provided in FIGS. 8A and 8B are an experimental schematic and results of tocolytic compound treatment in mouse models of severe preterm birth. In separate experiments, pregnant C57BL/6 mice were intraperitoneally administered 3 mg/kg LPS (Escherichia coli 0127: B8, chromatographically pure, Sigma-Aldrich) or PBS (as control) on D15. Treated mice were then treated with either intraperitoneal injections of vehicle or androstane-3,17-diol (1.5 mg/mouse). The androstane-3,17-diol group received androstane-3,17-diol via intraperitoneal injections every 24 hours, up to 3 days before delivery. One-third (33%) of LPS-induced preterm mice treated with androstane-3,17-diol reached full term.

[2] = test system: uterine muscle strips from pregnant WT mice stimulated with oxytocin; assay: myography of mouse uterine muscle strips, oxytocin dose response; conditions: D18 strips
Protocol: (§2) Uterine muscle strips were extracted from pregnant mice and were assessed for contractibility via myography. Timed-pregnant wild-type C57/B6 mice were euthanized before making a vertical midline abdominal incision and removing each of the two uterine horns. Uterine horns were subsequently cut into 3-mm×7-mm segments and placed in a modified Krebs buffer (118 mM NaCl, […], 1.2 mM MgSO4, 1.2 mM KH2PO4, 2.5 mM CaCl2), 25 mM NaHCO3, and 11 mM glucose, pH 7.4). Muscle segments were vertically suspended on custom-made stainless steel hooks inside an organ bath filled with modified Krebs buffer, maintained at 37° C., and aerated with gas containing 95% O2 and 5% CO2. The strips were allowed to equilibrate at 1.5 g of tension for 45 min.
For the oxytocin dose-response experiments, the strips were then stimulated with oxytocin at concentrations ranging from 1 to 1000 nM, and the pattern of contraction in response to each dose was recorded for 9 min. The muscle strips were washed with Krebs solution twice and allowed to equilibrate for 3 min before the next stimulation. In separate experiments, strips were treated with the compounds before assessing the dose response to oxytocin. Contraction tracings were recorded using PowerLab and LabChart (ADInstruments).
Provided in FIGS. 5B and 5C are results of a myography experiment measuring spontaneous contractions induced by oxytocin. […]

[3] = test system: uterine muscle strips from pregnant WT mice; assay: myography of mouse uterine muscle strips, spontaneous contraction
Protocol: as §2
Provided in FIG. 5A are results of a myography experiment measuring spontaneous contraction. Myography of uterine muscle strips from pregnant WT mice at D18 was performed while incubating the strips with oxytocin (OXY), Vehicle, 0.25 μM μM of DHEA-S, 1 μM of THDOC, 1 μM of estriol-16-glucuronide, or 1 μM of androstane-3,17-diol. The area under the curve was calculated for the final 180 s of each 9-min contraction tracing using GraphPad Prism (GraphPad Prism for Macintosh version 5.0; GraphPad Software). The area under the curve for each response was then normalized to the area under the curve of the baseline.
Provided in FIG. 5E are myography tracings recorded with various compound applications: 10 μM progesterone, 1 μM Androstane-3,17-diol, 0.5 μM Androstane-3,17-diol+5 μM progesterone, and 0.33 μM Androstane-3,17-diol+0.33 μM THDOC+3.3 μM progesterone. Left of the arrow is baseline contraction and to the right of the arrow indicates when the compounds were applied. […] Note that there was no obvious effect when treating the muscle with 1 μM progesterone (data not shown).

pregnant C57BL/6 mice [4] = assay: mouse model of moderate preterm birth (LPS 2 mg/kg); format: in vivo; conditions: LPS 2 mg/kg D15; for gestation after LPS: intraperitoneal every 8 hours, DHEA-S, THDOC 0.8 then 0.4 mg/mouse, androstane-3,17-diol 1.5 mg/mouse, combinations 0.75 mg/mouse each
Protocol: Provided in FIGS. 6A and 6B are an experimental schematic and results of compound treatment in mouse models of moderate preterm birth. Pregnant C57BL/6 mice were intraperitoneally administered 2 mg/kg LPS (Escherichia coli 0127:B8, chromatographically pure, Sigma-Aldrich) or PBS (as control) on D15. Mice were then treated with either intraperitoneal injections of vehicle (100 μl, 30% DMSO in pharmaceutical sesame oil), DHEA-S (first two doses at 0.8 mg/mouse, later doses at 0.4 mg/mouse, 100 μl), THDOC (first two doses at 0.8 mg/mouse, later doses at 0.4 mg/mouse, 100 μl), estriol-16-glucuronide (first two doses at 0.8 mg/mouse, later doses at 0.4 mg/mouse, 100 μl), androstane-3,17-diol (1.5 mg/mouse, 100 μl), Androstane-3,17-diol+progesterone (each at 0.75 mg/mouse, 100 μl), or DHEA-S+androstane-3,17-diol+progesterone (androstane-3,17-diol and progesterone each at 0.75 mg/mouse, DHEA-S at 0.27 mg/mouse for the first two doses and then 0.13 mg/mouse for the later does, 100 μl). Compound groups received the compounds via intraperitoneal injections every 8 hours, beginning 8 hours after LPS administration, up to 4 doses, and then after 12 hours before delivery.

pregnant C57BL/6 mice [5] = assay: gestation period in healthy control mice (no LPS); format: in vivo; conditions: 1.5 mg/mouse intraperitoneal every 24 hours
Protocol: as §1

[6] = test system: human uterine smooth muscle cells; assay: collagen gel contraction assay with human uterine smooth muscle cells; format: cell-based; conditions: compound at 10 μM; oxytocin 100 nM, 18 hours
Protocol: The abilities of various hormonal steroids to inhibit human uterine smooth muscle cell contraction were assessed utilizing a collagen gel contraction assay. Collagen (150 μl) was aliquoted per well of a 48-well plate. After 1 hour of polymerization, 80,000 human uterine smooth muscle cells (SMCs), were added to each well in 300 μl of SmBM smooth muscle basic medium (Lonza) with vehicle (DMSO) or compounds (2.5 µM of DHEA-S, 10 µM of THDOC, 10 µM of estriol-16-glucuronide, 10 µM of androstane-3,17-diol, or 2 mM of progesterone). Collagen gels were exposed to oxytocin (100 nM) to stimulate uterine SMC contraction or PBS as control. After incubating for 1 hour at 37° C. and 5% CO2, the sides of the collagen gels were detached from the wells with sterile 200-μl pipette tips. After 18 hours, cells in collagen-coated wells were fixed with 4% paraformaldehyde solution for 30 min, then rinsed, and stored in PBS. Experiments were done multiple times (n=7), with duplicates for each condition. Surface area of each gel circle was measured using ImageJ. The areas were then expressed as a percentage relative to the area of no cell (collagen alone) control (set at 100%).
Each of the compounds assessed provided some ability to mitigate collagen retraction. […]

pregnant CD1 mice = assay: mouse model of preterm birth (CD1, LPS 1 mg/kg); format: in vivo; conditions: LPS 1 mg/kg D15, subcutaneous; for pups birthed from treated preterm model females: 4 doses; for gestation after LPS: 4 doses at 30 mg/kg (5α-DHT 3 mg/kg)
Protocol: Provided in FIGS. 9 and 9B are an experimental schematic and results of compound treatment in mouse models of preterm birth. Pregnant CD1 mice were intraperitoneally administered 1 mg/kg LPS (Escherichia coli 0127: B8, chromatographically pure, Sigma-Aldrich) or PBS (as control) on D15. Mice were then treated with either subcutaneous injections of vehicle (DMSO in pharmaceutical sesame oil), pregnenolone (Preg) (4 doses at 30 mg/kg), pregnenolone sulfate (PregS) (4 doses at 30 mg/kg), 7-methylguanine (4 doses at 30 mg/kg), or 5α-dihydrotestosterone (5α-DHT) (4 doses at 3 mg/kg). Compound groups received the compounds beginning 6 hours after LPS administration, then 6, 12, and 12 hours apart.

SMILES: C[C@]12CC[C@@H](O)C[C@@H]1CC[C@@H]1[C@@H]2CC[C@]2(C)[C@@H](O)CC[C@@H]12 (stereo in doubt) [androstane-3,17-diol]
- condition of mom and pups at full-term (pregnant C57BL/6 mice [1]; 1.5 mg/mouse intraperitoneal every 12 hours): looked healthy
- fraction of mice that reached full-term (pregnant C57BL/6 mice [1]; 1.5 mg/mouse intraperitoneal every 12 hours, up to 5 doses): ⅓
- LPS-induced preterm mice that reached full term (pregnant C57BL/6 mice [1]; 1.5 mg/mouse intraperitoneal every 24 hours, up to 3 days): 33%
- uterine contractility with oxytocin stimulation (AUC, amplitude) ([2]; 1 μM compound, increasing doses of oxytocin): reduced; also recorded: inhibits uterine muscle contraction
- muscle contractility, myography tracing ([3]; 1 μM): rapid inhibition of the muscle contraction
- suppression of uterine contractility (area under the curve normalized to baseline) ([3]; D18 strips, 0.25 μM DHEA-S, 1 μM THDOC, estriol-16-glucuronide or androstane-3,17-diol): most significant inhibition effect
- pups birthed from treated preterm model females (pregnant C57BL/6 mice [4]; intraperitoneal): Full-term live pups
- rank of gestation result among treatments (pregnant C57BL/6 mice [4]; intraperitoneal): most significant results
- gestation after LPS (pregnant C57BL/6 mice [4]): prolonged gestation in vivo
- gestation period of healthy control mice (pregnant C57BL/6 mice [5]): increased gestation period beyond the typical date of delivery
- ability to mitigate collagen retraction [6]: best results

SMILES: C[C@]12CCC(=O)C[C@@H]1CC[C@@H]1[C@@H]2CC[C@]2(C)[C@@H](O)CC[C@@H]12 [5α-DHT, 5α-dihydrotestosterone]
- pups birthed from treated preterm model females (pregnant CD1 mice): Full-term live pups
- gestation after LPS (pregnant CD1 mice): prolonged gestation in vivo

SMILES: Cn1cnc2nc(N)[nH]c(=O)c21 [7-methylguanine]
- pups birthed from treated preterm model females (pregnant CD1 mice): Full-term live pups
- gestation after LPS (pregnant CD1 mice): prolonged gestation in vivo

SMILES: CC(=O)[C@H]1CC[C@H]2[C@@H]3CCC4=CC(=O)CC[C@]4(C)[C@H]3CC[C@]12C [progesterone, reference compound]
- muscle contractility, myography tracing ([3]; 1 μM): no effects
- muscle contractility, myography tracing ([3]; 10 μM): first enhanced and then gradually suppressed in peak height
- ability to mitigate collagen retraction [6]: no effect

SMILES: CC(=O)[C@H]1CC[C@H]2[C@@H]3CC=C4C[C@@H](OS(=O)(=O)O)CC[C@]4(C)[C@H]3CC[C@]12C [pregnenolone sulfate]
- pups birthed from treated preterm model females (pregnant CD1 mice): Full-term live pups
- rank of gestation result among treatments (pregnant CD1 mice; 4 doses at 30 mg/kg): most significant results, matching the untreated control
- gestation after LPS (pregnant CD1 mice): prolonged gestation in vivo

SMILES: CC(=O)[C@H]1CC[C@H]2[C@@H]3CC=C4C[C@@H](O)CC[C@]4(C)[C@H]3CC[C@]12C [pregnenolone]
- gestation after LPS (pregnant CD1 mice): prolonged gestation in vivo

SMILES: CC[C@H](C)[C@@H]1NC(=O)[C@H](Cc2ccc(O)cc2)NC(=O)[C@@H](N)CSSC[C@@H](C(=O)N2CCC[C@H]2C(=O)N[C@@H](CC(C)C)C(=O)NCC(N)=O)NC(=O)[C@H](CC(N)=O)NC(=O)[C@H](CCC(N)=O)NC1=O [Oxytocin, oxytocin, reference compound]
- effect of oxytocin on uterine contractility ([2]; 1 to 1000 nM oxytocin): dose-dependent increase in uterine contractility

SMILES: C[C@]12CC[C@H](OS(=O)(=O)O)CC1=CC[C@@H]1[C@@H]2CC[C@]2(C)C(=O)CC[C@@H]12 [DHEA-S, dehydroisoandrosterone sulfate]
- pups birthed from treated preterm model females (pregnant C57BL/6 mice [4]; intraperitoneal): Full-term live pups
- gestation after LPS (pregnant C57BL/6 mice [4]): prolonged gestation in vivo

SMILES: C[C@]12CC[C@@H](O)C[C@H]1CC[C@@H]1[C@@H]2CC[C@]2(C)[C@@H](C(=O)CO)CC[C@@H]12 [THDOC, tetrahydrodeoxycorticosterone]
- gestation after LPS (pregnant C57BL/6 mice [4]): prolonged gestation in vivo
